In paper PMC6934184, “Selective DNA-PKcs inhibition extends the therapeutic index of localized radiotherapy and chemotherapy” (The Journal of Clinical Investigation, 2019):

Target: T1, LYN B (Homo sapiens, UniProt P07948)
T1 construct: purchased Thermo Fisher Scientific (Life Technologies) SelectScreen
Experiment: SelectScreen Z'LYTE
Type: biochemical
Protocol: The in vitro kinase selectivity of NU5455 was determined using the SelectScreen Broad Assay Panel (Thermo Fisher Scientific) involving activity and binding assays (Supplemental Table 1). […] Class IA PI3Ks were measured using the p85α subunit.
Kinase [ATP] % Assay Kinase [ATP] % Assay Kinase [ATP] % Assay Kinase [ATP] % Assay […]
CHEK1 (CHK1) Km app 9.3 Z LYN B Km app 3.0 Z TGFBR2 n/a -0.1 L PDGFRA D842V Km app -5.0 Z […]
SGK (SGK1) Km app 8.5 Z MAP4K2 (GCK) Km app 2.7 Z TLK2 n/a -0.3 L STK38 (NDR) n/a -5.9 L
MERTK (cMER) Km app 8.3 Z CDK2/cyclin A Km app 2.7 Z TGFBR1 (ALK5) n/a -0.4 L MATK (HYL) Km app -6.3 Z
FYN Km app 8.3 Z EPHA1 Km app 2.7 Z CLK3 Km app -0.5 Z ABL1 E255K Km app -6.6 Z
TEC n/a 8.1 L CDK2/cyclin E1 n/a 2.7 L MAP3K14 (NIK) n/a -0.5 L STK17A (DRAK1) n/a -6.6 L
KIT V654A n/a 8.1 L TESK2 n/a 2.7 L AKT3 (PKB gamma) Km app -0.5 Z JAK2 JH1 JH2 Km app -6.7 Z
ROS1 Km app 8.0 Z SPHK1 Km app 2.7 A MAP3K9 (MLK1) Km app -0.5 Z PRKACB (PRKAC beta) n/a -6.8 L
FGFR3 K650E Km app 7.9 Z AMPK A2/B1/G1 Km app 2.6 Z IKBKB (IKK beta) Km app -0.6 Z PDGFRA (PDGFR alpha) Km app -6.8 Z
RAF1 (cRAF) Y340D Y341D 100 7.9 Z DYRK3 Km app 2.6 Z CAMK2A (CaMKII alpha) Km app -0.6 Z NEK9 Km app -7.2 Z
PI4KA (PI4K alpha) 10 7.8 A CSNK1D (CK1 delta) Km app 2.6 Z PRKCB1 (PKC beta I) Km app -0.7 Z PDK1 Km app -7.3 Z
HIPK2 Km app 7.8 Z ACVR2A n/a 2.5 L TTK n/a -0.7 L RPS6KB1 (p70S6K) Km app -7.8 Z […]

T1 sequence (P07948 1-491 isoform P07948-2): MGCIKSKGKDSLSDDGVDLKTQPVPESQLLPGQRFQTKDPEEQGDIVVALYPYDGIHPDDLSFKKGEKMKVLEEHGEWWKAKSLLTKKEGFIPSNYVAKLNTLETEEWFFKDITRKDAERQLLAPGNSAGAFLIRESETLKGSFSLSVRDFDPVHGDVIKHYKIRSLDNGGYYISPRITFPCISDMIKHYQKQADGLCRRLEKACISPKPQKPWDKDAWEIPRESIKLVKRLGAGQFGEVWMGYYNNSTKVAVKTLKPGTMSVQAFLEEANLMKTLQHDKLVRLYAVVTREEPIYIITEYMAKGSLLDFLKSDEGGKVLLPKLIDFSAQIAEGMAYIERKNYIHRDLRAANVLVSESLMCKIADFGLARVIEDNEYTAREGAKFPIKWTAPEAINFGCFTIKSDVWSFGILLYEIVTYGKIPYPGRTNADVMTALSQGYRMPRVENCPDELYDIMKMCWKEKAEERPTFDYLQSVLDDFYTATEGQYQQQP

CN(C(=O)CN1CCOCC1)c1ccc2sc3c(-c4cccc5c(=O)cc(N6CC7CCC(C6)O7)oc45)cccc3c2c1 [NU5455] showed an inhibition at 1 µM of 3%.
